The results in this text go back to US20190225643A1, “NOVEL NUCLEOSIDE ANALOGS AND USE THEREOF IN THERAPEUTIC TREATMENT” (CORNELL UNIVERSITY, priority 2016, published 2019).

Data set [1] relates to colon (RKO, HCT116, DID1) and pancreatic (PA-TU-8988T) cancer cell lines. Nature of the data set: Viability of adenocarcinoma cell lines. The data set is classed as cell-based. Here is the method: (§1) Cell viability assays were performed by plating log-phase cells in RPMI complete media with 20% FBS at 1*10^5 cells/mL, with concentrations of 6-ETI or phospho-6-ETI ranging from 0.1 nM to 100 μM. ATP content at 24, 48 and 72 hours post-treatment was measured by the CellTiter-Glo kit (Promega, Madison, Wis.), or by Trypan blue assay as indicated. The LC50 for 6-ETI in each cell line was determined using online EC50 software at changbioscience.com or using GraphPad Prism to determine the LC50 for 6-ETI, phospho-6-ETI and nucleoside analogs in MM cell lines and primary MM patient samples.

Data set [2] has as its system BC3NFRen-luc #3 PEL xenograft. Nature of the data set: PEL xenograft model (BC3NFRen-luc #3 in NOD-SCID mice). The data set is classed as in vivo. The procedure:
The BC3 in vivo xenograft model was set up as previously described (6). Essentially, ˜4-6 week old male NOD-SCID mice (Jackson Labs Stock# 001303) were injected intraperitoneally (I.P.) with 1*10^7 BC3NFRen-luc #3 cells and followed by in vivo imaging every three days. After imaging on day 5 to confirm establishment of the tumor, the mice were randomized to vehicle, low dose and high dose cohorts, with average tumor burden distributed evenly across the groups. Each dose cohort contained 10 mice. Mice were treated for nine days beginning at randomization with vehicle (PBS-Tween80), low dose 6-ETI (150 mg/kg/day), or high dose 6-ETI (300 mg/kg/day). Mice were treated with 200 mg/kg of the 6-ETI analogs (phospho-6ETI and 6-ETI cAMP) for 9 days. We monitored mice for tumor growth by live imaging and weighing, with sacrifice point determined to be a net gain or loss of 10% body weight over a week. Upon reappearance of refractory tumors, mice were re-treated for a further 9-day interval, and followed for a total of 100 days. Compound effects were assessed on overall survival, progression-free survival and tumor burden by Kaplan-Meier curves generated using GraphPad Prism software, and determined p values by 2-tailed analysis with log-rank tests.

Data set [3] concerns Primary CD138+ human myeloma cells. Description: Ex vivo viability of primary multiple myeloma samples. To be noted: 24 hours. The data set is classed as cell-based. Here is the method: as §1
Bone marrow specimens were obtained from multiple myeloma patients at the New York-Presbyterian Hospital under informed consent as part of an Institutional Review Board-approved study in accordance with the Declaration of Helsinki. Primary CD138^+ human myelorna cells were isolated by Ficoll-Hypaque density gradient centrifugation. The CD138^+ bone marrow myeloma cells were then enriched from this fraction to >95% purity using an automated MACS CD138 MicroBeads system (Miltenyi Biotechnology, Inc., Auburn, Calif.). […] PBLs were harvested from normal blood using Ficoll-Paque (Sigma-Aldrich) as described previously. Cells were plated in RPMI-1640 supplemented with 20% FBS.

Data set [4] deals with IBL-1 subcutaneous xenograft. Description: Xenograft model of EBV-associated immunoblastic lymphoma. The data set is classed as in vivo, mouse. To be noted: 300 mg/kg/day i.p., 5 treatments over 10 days. The procedure:
The in vivo xenograft model of EBV-associated immunoblastic lymphoma was generated by injecting NOD-SCID mice (obtained from Jackson Laboratory Stock# 001303) subcutaneously on the flank region with 5*10^6IBL-1 cells in 200 μl of 50:50 matrigel/cell suspension per mouse. After forming palpable or measurable tumors, mice were randomly grouped (n=3 per group) and treated intraperitoneally with vehicle PBS-Tween80 or 6-ETI (300mg/kg/day) for 5 treatments over the course of 10 days where drug was administered three times a week. Tumor size was assessed by caliper measurement three times a week, and tumor volume (V) was calculated using the formula V=(length×Width^2)/2 where L=length or largest tumor diameter and W=width or the perpendicular tumor diameter. Relative tumor volume was determined according to the formula Vd/V0 where Vd is tumor volume on the day of measurement, and V0 represents the tumor volume on day 0 when the treatment started. At the end of the treatment course, two of the control mice were treated with vehicle PBS-Tween80 or 6-ETI (300 mg/kg) for 24 hr after which the tumors were harvested, fixed in 10% formalin and embedded in paraffin for histological examination and immunohistochemistry.

Data set [5] deals with CAG-luc multiple myeloma xenograft. Description: Disseminated multiple myeloma xenograft model. The data set is classed as in vivo, mouse. Here is the method: For the disseminated multiple myeloma xenograft model, CAG cells were kindly provided by Dr. Malcolm Moore lab at MSKCC. 1×10^7 of CAG cells stably expressing the HSV-TK-eGFP-luciferase fusion protein were injected intravenously into NOD/SCID (NOD/LTSZPrko/J, the Jackson Laboratory Stock# 001303). Eight days after tumor induction, mice were randomized into control and treated cohorts and treated intraperitoneally with either PBS 0.05% tween 80 (vehicle) or 200 mg/kg of 6-ETI daily for 9 days. Tumor mass or bioluminescence (photons/s/cm^2/steradian) was evaluated by imaging the mice using IVIS Imaging system. Statistical analysis was done using a two-tailed, unpaired Student's t-test using GraphPad prism.

Data set [6] relates to KSHV lytic reactivation in JSC1 PEL cell line. Nature of the data set: Lytic reactivation flow assay in rKSHV.219 infected JSC1 cells. The class given is cell-based. To be noted: in a small proportion of cells; 1 or 10 μM, 24 or 48 hours. The procedure:
Lytic reactivation low was performed as previously described (Soulier J. et al., Blood 1995;86(4):1276-80). JSC1 B3.1 cells in the exponential phase were seeded at 2*10^5 cells/mL and treated with 1 or 10 μM 6-ETI for 24 or 48 hours, or 20 ng/mL lytic inducer TPA for 48 hours.

SMILES strings stand for the structures.

Regarding `CCSc1ncnc2c1ncn2[C@@H]1O[C@H](CO)C(O)[C@@H]1O` (some centres unmarked) [Compound 6-ETI, 6-ethylthioinosine], the LC50 result in data set [1] is “nanomolar range”. The toxicities from treatment result in data set [2] (150 or 300 mg/kg/day) was “no obvious toxicities”. The “tumor response by in vivo luciferase imaging” value in data set [2] (150 or 300 mg/kg/day for 9 days, within three days of treatment) was “striking and immediate regression of the implanted xenograft”. The progression-free survival entry in data set [2] (150 or 300 mg/kg/day, p<0.0001, 100 days) is “startling protective effect”. In addition, the overall survival result in data set [2] (low dose and high dose versus untreated) was “significant prolonged overall survival”. The sensitivity ex vivo result in data set [3] is reported as “showed sensitivity”. In addition, the tumor growth entry in data set [4] is given as “reduced the rate of tumor growth”. In data set [5] (200 mg/kg/day i.p. for 9 days), the “tumor burden (bioluminescent signal)” value is “significant reduction in tumor burden” and the weight loss result was “without any weight loss”. The overall survival result in data set [5] (200 mg/kg/day, P<0.005) was “significantly prolonged”. The lytic reactivation result in data set [6] is “induction of lytic reactivation”.
